Legend:
[1] = Characterization of the lipid nanoparticles prepared in Example 6; type: physicochemical; conditions: cationic lipid analogue:cholesterol:DSPC:DMG-PEG 50:38.5:10:1.5
From the text: The drug-loaded nanoparticle included a cationic lipid analogue, cholesterol, distearoylphosphatidylcholine (DSPC), and 1,2-dimyristoyl-rac-glycerol-3-methoxypolyethylene glycol (DMG-PEG), • wherein a molar ratio of the cationic lipid analogue:cholesterol:DSPC:DMG-PEG was 50:38.5:10:1.5.
In the drug-loaded nanoparticle, a mass ratio of the cationic lipid analogue to the nucleic acid drug, such as mRNA or siRNA, etc., was 11:1.
A cationic lipid analogue, cholesterol, DSPC, and DMG-PEG were dissolved in an ethanol solution, and mixed in the above-mentioned molar ratio to obtain an organic phase. Then, an mRNA nucleic acid drug at a corresponding mass ratio was dissolved in a sodium acetate buffer solution (25 mM, pH=3.0) to obtain an aqueous phase, so that a volume ratio of the aqueous phase to the organic phase was 3:1. Then, the aqueous phase was quickly added to the organic phase and mixed evenly, and the mixture was allowed to stand for 10 minutes. After that, the mixture was put into a 1000 Da dialysis bag, and dialyzed in a 1×PBS solution at 4° C. for 2 hours to obtain the nanoparticle that can be directly used for injection.

C57BL/6 mice [2] = assay: In vivo expression level of Luciferase-mRNA delivered by intravenous injection (bioluminescence imaging); conditions: mRNA-loaded nanoparticles, intravenous (tail vein), 5 μg Luciferase-mRNA, 6 hours; for Fluorescence intensity of liver / Bioluminescence intensity: compounds of Example 1
Summary of the method: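 Lipid nanoparticles carrying 5 μg Luciferase-mRNA given by tail-vein injection to 6-8-week-old C57BL/6 mice. At 6 h, 3 mg D-luciferin i.p. in PBS; bioluminescence imaged 10 min later as the expression read-out.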

C57BL/6 mice [3] = assay: In vivo expression level of Luciferase-mRNA delivered by intramuscular injection (bioluminescence imaging); conditions: mRNA-loaded nanoparticles, intramuscular (leg muscle), 5 μg Luciferase-mRNA, 6 hours
Experimental: Luciferase-mRNA was used as an mRNA model; and the cationic lipid analogues of Examples 1-5 were used to prepare drug-loaded nanoparticles according to the method of Example 6.
100 μL of nanoparticles containing 5 μg Luciferase-mRNA or the drug-loaded nanoparticles prepared above were injected into the leg muscles of 6-8 week-old C57BL/6 mice, and 200 μL of 1×PBS solution containing 3 mg D-Luciferin potassium salt was intraperitoneally injected into the mice 6 hours later. After waiting for 10 minutes, an in vivo expression level of the mRNA was evaluated by bioluminescence imaging.

Row | Structure (SMILES) | Fluorescence intensity of liver (C57BL/6 mice [2]) | Local fluorescence intensity (C57BL/6 mice [3]; compounds of Example 1) | Fluorescence intensity of spleen (C57BL/6 mice [2]; compounds of Example 2) | Local fluorescence intensity (C57BL/6 mice [3]; compounds of Example 2) | also measured
1 | CCCCCCCCCCSSCCC(=O)N(CCO)C(C(=O)NCCN(CCNC(=O)C(C(C)C)N(CCO)C(=O)CCSSCCCCCCCCCC)CCNC(=O)C(C(C)C)N(CCO)C(=O)CCSSCCCCCCCCCC)C(C)C (stereo not drawn) [A1I5R22S15] | – | – | – | – | Diameter of the nanoparticles [1]: 144 ± 7 nm; PDI [1]: 0.22; Zeta potential [1]: −7.2 mV; encapsulation efficiency [1]: 65.4%; Fluorescence intensity of spleen (C57BL/6 mice [2]; compounds of Example 3): 3.40E+06; Local fluorescence intensity (C57BL/6 mice [3]; compounds of Example 3): 1.50E+06
2 | CCCCCCCCCCCCNC(=O)C(C(C)C)N(CCN(CCN(C(=O)CO)C(C(=O)NCCCCCCCCCCCC)C(C)C)CCN(C(=O)CO)C(C(=O)NCCCCCCCCCCCC)C(C)C)C(=O)CO (stereo not drawn) [A1I12R47C21] | – | – | – | – | Fluorescence intensity of spleen (C57BL/6 mice [2]; compounds of Example 5): 3.10E+05; Local fluorescence intensity (C57BL/6 mice [3]; compounds of Example 5): 2.22E+05
3 | CCCCC/C=C\C/C=C\CCCCCCCC(=O)N(CCCN(C)C)C(C(=O)NCCCCCCCCCCCCCCCCCC)C(C)C (stereo not drawn) [A1I18R2C18-2] | 5.42E+04 | 7.88E+04 | – | – | –
4 | CCCCCCCCCCCCCCCCCCNC(=O)C(C(C)C)N(CCCN(C)C)C(=O)CCCCCCCCCCCCCCCCC (stereo not drawn) [A1I18R2C18] | 2.26E+04 | 1.36E+05 | – | – | –
5 | CCCCC/C=C\C/C=C\CCCCCCCC(=O)N(CCCN1CCOCC1)C(C(=O)NCCCCCCCCCCCCCCCCCC)C(C)C (stereo not drawn) [A1I18R5C18-2] | 3.77E+03 | 8.15E+04 | – | – | –
6 | CCCCCCCCCCCCCCCCCCNC(=O)C(C(C)C)N(CCCN1CCOCC1)C(=O)CCCCCCCCCCCCCCCCC (stereo not drawn) [A1I18R5C18] | 1.16E+03 | 5.25E+04 | – | – | –
7 | CCCCC/C=C\C/C=C\CCCCCCCC(=O)N(CCN1CCCCC1)C(C(=O)NCCCCCCCCCCCCCCCCCC)C(C)C (stereo not drawn) [A1I18R12C18-2] | 1.41E+03 | 3.38E+06 | – | – | –
8 | CCCCCCCCCCCCCCCCCCNC(=O)C(C(C)C)N(CCN1CCCCC1)C(=O)CCCCCCCCCCCCCCCCC (stereo not drawn) [A1I18R12C18] | – | 4.37E+04 | – | – | Bioluminescence intensity (C57BL/6 mice [2]): 9.34E+02
9 | CCCCC/C=C\C/C=C\CCCCCCCC(=O)N(CCN(CCN(C(=O)CCCCCCC/C=C\C/C=C\CCCCC)C(C(=O)NCCOC)C(C)C)CCN(C(=O)CCCCCCC/C=C\C/C=C\CCCCC)C(C(=O)NCCOC)C(C)C)C(C(=O)NCCOC)C(C)C (stereo not drawn) [A1I31R47C18-2] | – | – | – | – | Fluorescence intensity of spleen (C57BL/6 mice [2]; compounds of Example 5): 6.90E+04; Local fluorescence intensity (C57BL/6 mice [3]; compounds of Example 5): 2.24E+05
10 | CCCCCCCC/C=C\CCCCCCCC(=O)N(CCO)C(C(=O)NCCN(C)CCNC(=O)C(C(CC)CCCC)N(CCO)C(=O)CCCCCCC/C=C\CCCCCCCC)C(CC)CCCC (stereo not drawn) [A4I4R22C18-1] | – | – | 6.82E+05 | 5.47E+05 | –
11 | CCCCC/C=C\C/C=C\CCCCCCCC(=O)N(CCO)C(C(=O)NCCN(C)CCNC(=O)C(C(CC)CCCC)N(CCO)C(=O)CCCCCCC/C=C\C/C=C\CCCCC)C(CC)CCCC (stereo not drawn) [A4I4R22C18-2] | – | – | 2.61E+05 | 4.66E+05 | –
12 | CCCCCCCCCCCCCCCCCC(=O)N(CCO)C(C(=O)NCCN(C)CCNC(=O)C(C(CC)CCCC)N(CCO)C(=O)CCCCCCCCCCCCCCCCC)C(CC)CCCC (stereo not drawn) [A4I4R22C18] | – | – | 5.51E+05 | 5.53E+05 | –
13 | CCCCC/C=C\C/C=C\CCCCCCCC(=O)N(CCOC)C(C(=O)NCCN(C)CCNC(=O)C(C(CC)CCCC)N(CCOC)C(=O)CCCCCCC/C=C\C/C=C\CCCCC)C(CC)CCCC (stereo not drawn) [A4I4R23C18-2] | – | – | 4.96E+05 | 1.93E+04 | –
14 | CCCCCCCCCCCCCCCCCC(=O)N(CCOC)C(C(=O)NCCN(C)CCNC(=O)C(C(CC)CCCC)N(CCOC)C(=O)CCCCCCCCCCCCCCCCC)C(CC)CCCC (stereo not drawn) [A4I4R23C18] | – | – | 2.16E+05 | 6.36E+04 | –
15 | CCCCCCCC/C=C\CCCCCCCC(=O)N(CCN(C)C)C(C(=O)NCCCCCCCCCCCCCCCCCC)C(CC)CCCC (stereo not drawn) [A4I18R1C18-1] | – | 1.54E+07 | – | – | Bioluminescence intensity (C57BL/6 mice [2]): 1.39E+07
16 | CCCCC/C=C\C/C=C\CCCCCCCC(=O)N(CCN(C)C)C(C(=O)NCCCCCCCCCCCCCCCCCC)C(CC)CCCC (stereo not drawn) [A4I18R1C18-2] | 9.67E+06 | 2.11E+07 | – | – | –

Source: US20250161216A1, “CATIONIC LIPID ANALOGUES, COMPOSITIONS AND USES THEREOF” (GUANGZHOU LIDE BIOMEDICINE TECHNOLOGY CO., LTD., priority 2022, published 2025)
